This passage reports TGI results from PubChem BioAssay (NCI).

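Test compounds were applied to cells in 96-well plates for 48 hours at 5 doses. TGI is the concentration that stops growth completely.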

Test in all cases: DTP human tumour cell line panel, 48 h
The test system of assay [1] is M14 melanoma.
Assay [2] concerns MALME-3M melanoma.
Assay [3] deals with MDA-MB-435.
The subject of assay [4] is NCI-H460 lung.
Assay [5] relates to OVCAR-4 ovarian.
Assay [6] deals with OVCAR-8 ovarian.
Assay [7] concerns SK-OV-3 ovarian.
Assay [8] deals with UACC-62 melanoma.
Assay [9] concerns CCRF-CEM leukemia.
In assay [10] the test system is T-47D breast.

For orientation: TGI means the concentration giving total growth inhibition. With `COc1cccc(C(=O)C#Cc2cnc(OC)nc2OC)c1`, the TGI was found to be 6.28 µM in [1]; 3.23 µM in assay [2]; 5.24 µM in [3]; 28.3 µM in assay [4]; 6.61 µM in [5]; 3.88 µM in [6]. Further, the concentration for total growth inhibition (TGI) in assay [7] came to 44.9 µM; in assay [8], 3.08 µM.
As for `CCC1C(c2ccccc2O)c2cc3c(cc2OC1N1CCOCC1)OCO3` (centres undefined), the TGI was 32.7 µM in assay [9]; 30.6 µM in assay [1]; 26 µM in assay [2]; 28.9 µM in assay [3]; 29.7 µM in [4]; 46.2 µM in assay [6]. For the same compound, the TGI amounted to 39.6 µM in assay [7], 28.8 µM in assay [10] and 27.1 µM in assay [8].
As to `CN=C(Nc1cccc(C(F)(F)F)c1)SCc1ccc(N=C=S)cc1`, the TGI in assay [9] is above 100 µM; in assay [2], 27.8 µM; in assay [3], 27 µM; in [4] it was 26.4 µM; in [5], 26.8 µM; in [6], 40.7 µM. For the same compound, the TGI in [7] was determined as 34.5 µM; in assay [10] it was 29.9 µM; in [8] it was 24.6 µM.
Take `C=CCOc1ccc(C2C(C(=O)OC)C(=O)CC(O)(c3ccccc3)C2C(=O)OC)cc1OC` (centres undefined): the TGI in assay [9] was above 100 µM; in [2] it was above 100 µM; in assay [3], above 100 µM; in [4], above 100 µM; in assay [5], 69.5 µM; in assay [6] it was 50.4 µM. The TGI in [10] is 46.9 µM; in assay [8] it was above 100 µM.
Turning to `COc1cc(CNc2nc3ccccc3nc2C(=O)O)cc(OC)c1OC`, the TGI in assay [9], in assay [2], in assay [3], in assay [4], in assay [5] and in [6] was above 100 µM each time. The TGI in assay [7], in [10] and in assay [8] was above 100 µM in each case.
`CN(C)CCNC(=O)c1cccc2c(NC(CCC(N)=O)C(=O)O)c3ccccc3nc12` (centres undefined): the TGI in assay [9] is above 100 µM; in assay [1], 27.5 µM; in assay [2], 19.5 µM; in [3] it was 23.1 µM; in [4], 54.9 µM; in assay [5] it was 60.6 µM. The figures for the TGI in [6], in assay [7] and in assay [8] were above 100 µM, 54.9 µM and above 100 µM, respectively.
With `OC(c1cccnc1Cl)c1nc2ccccc2c2ccnc(Cl)c12` (centres undefined), the TGI is above 100 µM in assay [1]; 78.2 µM in [2]; 4.89 µM in assay [3]; above 100 µM in [4]; above 100 µM in assay [5]; above 100 µM in assay [6]. In addition, the values for the TGI in assay [7], in assay [10] and in [8] were 63.4 µM, above 100 µM and 23.7 µM, respectively.
For the compound `Cc1cnc2c(c1C)C(=O)c1ccccc1C2=O`, the TGI in [9] was above 100 µM; in assay [1] it was above 100 µM; in assay [3] it was 39.1 µM; in assay [4], 53.8 µM; in [5], 59.3 µM; in assay [6], above 100 µM. Also, the TGI in assay [7] and in [10] was above 100 µM throughout.
In the case of `O=C1CCCC/C1=C\c1ccc(Cl)c(Cl)c1`, the TGI in assay [9] was 58.7 µM; in [1], 42.2 µM; in assay [4], 42.6 µM; in assay [5], 41 µM; in assay [6], 78 µM; in assay [7] it was above 100 µM. Further, the TGI in [8] is 63.6 µM.
As for `C=C1CC[C@@H](C)[C@](C)(CCc2ccoc2)C/C=C\C=C/1C(=O)O`, the TGI in [9] was 90.3 µM; in assay [1] it was above 100 µM; in assay [2], above 100 µM; in [3] it was above 100 µM; in [4] it was above 100 µM; in assay [5], above 100 µM. The TGI in [6] was 48.8 µM; in assay [7], above 100 µM; in assay [8], above 100 µM.
For the compound `CCCc1[nH]c2ccccc2c1-c1c(CCC)[nH]c2ccccc12`, the TGI in [9] is above 100 µM; in assay [1], 27.9 µM; in [2], 32.7 µM; in [3], above 63.7 µM; in assay [4] it was 59.7 µM; in assay [5], above 68.2 µM. The TGI in assay [6] turned out to be 11.2 µM; in assay [7] it was 65.5 µM; in assay [8], 34.8 µM.
Consider `COc1cc(Oc2nc3ccc(C(F)(F)F)cc3nc2-c2ccccc2)cc(OC)c1OC`, for which the TGI in [9] was above 100 µM; in [2], above 100 µM; in [3] it was above 100 µM; in assay [4], above 100 µM; in assay [5], 26.3 µM; in [6], above 100 µM. The TGI is 33.4 µM in [7], above 100 µM in [10] and 31.7 µM in assay [8].
Turning to `CSc1c(C#N)c(N)n(-c2ccc(Cl)cc2)c(=O)c1C#N`, the TGI in assay [1], in assay [2], in [3], in assay [4], in assay [5] and in assay [6] was above 100 µM in each case. For the same compound, the TGI in assay [7], in [10] and in assay [8] was above 100 µM in each case.
On to `COC(=O)Cc1c(-c2c(CC(=O)OC)c3ccccc3n2C2OC(COC(C)=O)C(OC(C)=O)C(OC(C)=O)C2OC(C)=O)[nH]c2ccccc12` (centres undefined), for which the TGI in assay [9], in [1], in [2], in assay [3], in [4] and in assay [5] was above 100 µM throughout. The TGI in assay [7] and in assay [8] was above 100 µM throughout.
As for `COc1cc(Nc2nc3cc(C(F)(F)F)ccc3n3cccc23)cc(OC)c1OC`, the TGI in assay [9], in assay [1], in assay [2], in [3], in [6] and in assay [7] was above 100 µM each time. In addition, the TGI in [10] is 9.91 µM; in assay [8], above 100 µM.
On to `CCN(CC)C1Oc2cc3c(cc2C(c2cccc(OC)c2OC)C1C)OCO3` (centres undefined), for which the TGI was determined as 8.48 µM in [9]; 46.7 µM in [1]; 33.5 µM in assay [2]; 45.6 µM in [3]; 17.7 µM in assay [4]; 22.6 µM in assay [6]. Further, the total growth inhibition concentration (TGI) is 58.5 µM in assay [7], 28.5 µM in assay [10] and 30.1 µM in assay [8].
Regarding `COc1cccc(C2c3cc4c(cc3OC3COC(=O)C32)OCO4)c1OC` (centres undefined), the TGI in [9], in [1], in assay [2], in assay [4], in assay [5] and in [6] was above 100 µM in each case. Also, the TGI in assay [7] and in assay [8] was above 100 µM each time.
For `COc1cccc(/N=N/C(=NNC(=O)c2ccc(C)cc2)c2ccc(N(C)C)cc2)c1`, the TGI in [9], in [1], in [3], in assay [4], in [5] and in assay [6] was above 100 µM throughout. Moreover, the TGI in assay [7] and in assay [10] was above 100 µM throughout.
Take `CC[C@@]1(O)C(=O)OCc2c1cc1n(c2=O)Cc2c-1nc1ccccc1c2/C=N\NC(=O)C(N)CCSC` (some centres undefined): the TGI in assay [9] is above 100 µM; in [1], 0.473 µM; in assay [2], 14.5 µM; in assay [3], 3.58 µM; in assay [4], 0.624 µM; in assay [5], 3.24 µM. Further, the TGI is 4.36 µM in assay [6], 7.73 µM in assay [7] and below 0.043 µM in [8].
For `COC(=O)C1CCC(=O)N1C(c1ccc2c(c1)OCO2)c1cc(OC)c(OC)c(OC)c1` (centres undefined), the TGI in [9], in assay [1], in [2], in assay [3], in assay [4] and in assay [5] was above 100 µM in each case. Besides, the TGI in assay [6], in assay [7] and in assay [8] was above 100 µM throughout.
Regarding `O=C(c1ccccc1)c1c(CC(O)c2ccncc2)n(C(=O)c2ccccc2)c2ccccc12` (centres undefined), the TGI in [9] was 61.9 µM; in [1] it was 30.8 µM; in assay [2], 34 µM; in assay [4], 49.9 µM; in assay [5], 39.7 µM; in [6], above 100 µM. Further, the TGI in [8] is 31.5 µM.
`O=C1c2ccccc2N2OC3(N4CCCC4)CCCCC3C12c1ccccc1` (centres undefined): the TGI in [9] was 47.5 µM; in assay [1], 34.6 µM; in assay [2], 38.7 µM; in assay [5] it was 28.1 µM; in assay [6] it was 32.9 µM; in [7], above 100 µM. In assay [8], the TGI turned out to be 40.1 µM.
For the compound `COc1ccc(C2=NOC(N)(c3ccc(OC)cc3)C2)cc1` (centres undefined), the total growth inhibition concentration (TGI) in assay [9], in [1], in [2], in assay [3], in assay [4] and in assay [5] was above 100 µM throughout. Besides, the TGI in assay [6], in [7] and in assay [8] was above 100 µM each time.
Turning to `CNNC(=NS(=O)(=O)c1cc(C#N)c(NNC)cc1S)NNC`, the TGI in [9], in [1], in assay [2], in assay [4], in [5] and in assay [6] was above 10 µM each time. Also, the TGI in [7] and in assay [10] was above 10 µM each time.
For `Nc1ncnc2c1ncn2[C@@H]1O[C@H](COC(c2ccccc2)(c2ccccc2)c2ccccc2)[C@@H](OC(=S)Oc2ccccc2)[C@@H]1F`, the TGI was 8.55 µM in [9]; 21 µM in [1]; 19.1 µM in assay [3]; 46.3 µM in assay [4]; 57.9 µM in assay [5]; 11.9 µM in assay [6]. The TGI in assay [7] was found to be 30.8 µM; in assay [10], 52.3 µM; in [8] it was 29.7 µM.
Take `CCN(CCN(CC)C(=O)Nc1ccccc1)C(=O)Nc1ccccc1`: the TGI in [9], in assay [1], in [2], in assay [4], in [6] and in assay [7] was above 100 µM each time. In addition, the TGI in [10] and in assay [8] was above 100 µM in each case.
For the compound `COC(=O)C(=O)Cc1nc2ccccc2o1`, the TGI in assay [9], in [1], in assay [2], in [4], in [5] and in [7] was above 100 µM each time. This compound also displayed a TGI in assay [8] above 100 µM.
Turning to `C=C(C)[C@@H]1CC[C@]2(C(=O)OC)CC[C@]3(C)[C@H](CC[C@@H]4[C@@]5(C)CC[C@H](O)C(C)(C)[C@@H]5CC[C@]43C)[C@@H]12`, the TGI is 48.9 µM in assay [9]; above 100 µM in assay [1]; 53 µM in assay [2]; 42.5 µM in assay [3]; 38.4 µM in assay [4]; 51.2 µM in assay [6]. In assay [10], this compound returned a TGI of 34 µM.
On to `CCCCCCCCCCCC[N+](CCCCCCCCCCCC)=C1SCCS1`, for which the TGI was 22.3 µM in assay [1]; 19.1 µM in [2]; 20.5 µM in assay [4]; 11.3 µM in [5]; 8.33 µM in [6]; 30.1 µM in assay [7]. In addition, in assay [8], the TGI turned out to be 22.9 µM.
Turning to `O=C1NC2CCCCCC2C12CCCCC2` (centres undefined), the TGI in assay [9], in assay [1], in [2], in [4], in assay [5] and in [7] was above 100 µM each time. The compound also gave a TGI in assay [8] above 100 µM.
Consider `CCOC(=O)c1c[nH]c2ccc3c(c2c1=O)S(=O)(=O)CC3` (tested in a mixture with another compound), for which the TGI in [9], in [2], in [4], in assay [5], in assay [6] and in assay [7] was above 100 µM in each case. Moreover, in [8], the TGI is above 100 µM.
